# Results reported in article PMC4177392, “Modulation of Cytochrome P450 Metabolism and Transport across Intestinal Epithelial Barrier by Ginger Biophenolics” (PLoS ONE, 2014).
# Read-outs that look alike come from different tables or passages of the source.
# Assays:
# CYP2A6 = target: T1, CYP2A6 (Homo sapiens, UniProt P11509); assay: CYP2A6 inhibition in human liver microsomes (substrate coumarin); format: in vitro ADME
# T1 sequence (P11509 1-494): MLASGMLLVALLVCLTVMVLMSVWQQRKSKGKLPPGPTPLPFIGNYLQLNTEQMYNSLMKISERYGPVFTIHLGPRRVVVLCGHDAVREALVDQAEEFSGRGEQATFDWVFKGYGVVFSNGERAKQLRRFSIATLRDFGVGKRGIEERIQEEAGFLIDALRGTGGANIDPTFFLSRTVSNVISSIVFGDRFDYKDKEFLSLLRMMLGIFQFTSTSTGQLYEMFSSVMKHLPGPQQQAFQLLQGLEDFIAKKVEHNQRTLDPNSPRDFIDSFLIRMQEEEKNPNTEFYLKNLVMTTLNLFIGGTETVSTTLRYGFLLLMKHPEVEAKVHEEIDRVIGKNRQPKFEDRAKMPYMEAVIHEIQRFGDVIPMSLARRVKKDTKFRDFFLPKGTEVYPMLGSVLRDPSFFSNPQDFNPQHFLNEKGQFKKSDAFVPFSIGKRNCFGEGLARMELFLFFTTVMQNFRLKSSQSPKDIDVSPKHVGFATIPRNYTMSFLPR
# Procedure: (§5) The highest concentration of GE used in the assay was 500 µg/mL equivalent. Stock solution for each CYP specific probe substrate was prepared in such a way that the final concentration is below the reported Km value.
# (§6) A microsome-buffer-substrate mixture (MBS mix) was prepared for each isozyme by pre-mixing appropriate volumes of sodium phosphate buffer (pH 7.4, 50 mM), microsomes and substrate (Table S2 in File S1). 179 µL of MBS mix was transferred to 96-well reaction plate to which 1 µL of inhibitor stock solution was added to achieve the final target inhibitor concentration. The reaction plate was pre-incubated for 10 min at 37°C followed by reaction initiation by addition of 20 µL of 10 mM NADPH solution. The reaction plate was then incubated at 37°C for a predetermined time period following which it was quenched with 200 µL ACN for all CYPs and 200 µL 1% formic acid in water∶ACN (70∶30) for CYP1A2. In all cases, the final incubations after addition of substrate and inhibitor contained 0.1% DMSO (v/v), and the total organic solvent (DMSO and ACN) content was less than or equal to 1% (v/v). […] The incubations were performed in singlet for individual gingerols and in duplicate for GE along with respective positive controls.
# CYP2E1 = CYP2E1 (Homo sapiens, UniProt P05181); assay: CYP2E1 inhibition in human liver microsomes (substrate chlorzoxazone)
# Procedure: (§1) Stock solution for each CYP specific probe substrate was prepared in such a way that the final concentration is below the reported Km value.
# (§2) A microsome-buffer-substrate mixture (MBS mix) was prepared for each isozyme by pre-mixing appropriate volumes of sodium phosphate buffer (pH 7.4, 50 mM), microsomes and substrate (Table S2 in File S1). 179 µL of MBS mix was transferred to 96-well reaction plate to which 1 µL of inhibitor stock solution was added to achieve the final target inhibitor concentration. The reaction plate was pre-incubated for 10 min at 37°C followed by reaction initiation by addition of 20 µL of 10 mM NADPH solution. The reaction plate was then incubated at 37°C for a predetermined time period following which it was quenched with 200 µL ACN for all CYPs and 200 µL 1% formic acid in water∶ACN (70∶30) for CYP1A2. In all cases, the final incubations after addition of substrate and inhibitor contained 0.1% DMSO (v/v), and the total organic solvent (DMSO and ACN) content was less than or equal to 1% (v/v). The details of final substrate concentration, incubation time, microsomal protein concentration in the reaction mixtures and the metabolites monitored for each isozyme tested are presented in Table S3 in File S1.
# (§3) All samples were processed using protein precipitation method and analyzed by employing positive (for all CYPs) and negative (for CYP2A6, 2C19 and 2E1) ionization mode in liquid chromatography tandem mass spectrometry (API4000, Applied Biosystems, USA). The peak area ratio of analyte to IS was used for calculations. An isocratic method comprising 5 mM ammonium formate and ACN (40∶60) with 0.05% formic acid was used for elution. For CYP2C19, a mobile phase consisting of 5 mM ammonium formate and ACN (30∶70) was used. The analytes and internal standards were retained on BDS Hypersil Phenyl (150×4.6 mm, 5 µ, Thermo, USA) column. A flow rate of 0.5 mL/min (CYP1A2), 0.6 mL/min (CYP2C19, CYP2E1), 0.7 mL/min (CYP2C9), 0.8 mL/min (CYP2A6, CYP3A), 1.0 mL/min (CYP2B6, CYP2C8, CYP2D6) was maintained using Shimadzu Prominence solvent delivery system (LC-20AD). The mobile phase was degassed using degasser (DGU-20A3), samples were loaded into autosampler (SIL-HTc) and the column temperature was maintained at 40°C by column oven (CTO-20A). Injection volumes for the samples were as follows: 5 µL (CYP1A2, CYP2D6, and CYP3A), 10 µL (CYP2B6, CYP2C8, and CYP2E1) and 20 µL (CYP2A6, CYP2C9, and CYP2C19). Data was collected and processed using Sciex Analyst 1.4.2. All the structures of inhibitors, substrates, metabolites and internal standards for each CYP enzyme are represented in Table S6 in File S1.
# The IC50 value was estimated from the percentage reduction in CYP activity at eleven inhibitor concentrations with respect to control.
# (§4) The data was analysed using 4PL (parameter logistic model), 3PLFB (bottom fixed), 3PLFT (top fixed), 2PL (top and bottom fixed), and the relative IC50 was with lowest standard error was further manipulation. Absolute IC50 was calculated from this relative IC50 by using the equation below: [drawing 3]
# CYP1A2 = target: T2, CYP1A2 (Homo sapiens, UniProt P05177); assay: CYP1A2 inhibition in human liver microsomes (substrate phenacetin); format: in vitro ADME
# T2 construct: […]; tissue XenoTechLLC H0610
# T2 sequence (P05177 1-516): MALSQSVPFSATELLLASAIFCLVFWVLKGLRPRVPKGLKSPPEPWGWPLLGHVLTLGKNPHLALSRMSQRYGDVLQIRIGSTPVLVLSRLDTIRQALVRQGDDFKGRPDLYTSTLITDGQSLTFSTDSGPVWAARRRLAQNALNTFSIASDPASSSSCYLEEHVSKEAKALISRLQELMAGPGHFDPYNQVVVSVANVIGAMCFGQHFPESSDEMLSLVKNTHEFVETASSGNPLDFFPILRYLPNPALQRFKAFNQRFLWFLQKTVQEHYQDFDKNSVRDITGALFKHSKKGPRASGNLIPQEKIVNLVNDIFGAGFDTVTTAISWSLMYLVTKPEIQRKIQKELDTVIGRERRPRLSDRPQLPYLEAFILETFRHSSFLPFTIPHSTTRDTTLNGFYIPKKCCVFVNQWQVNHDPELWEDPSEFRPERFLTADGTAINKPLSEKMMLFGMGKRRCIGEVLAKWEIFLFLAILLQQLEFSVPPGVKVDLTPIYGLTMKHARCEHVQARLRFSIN
# Procedure: as §5, §6
# CYP2B6 = target: T3, CYP2B6 (Homo sapiens, UniProt P20813); assay: CYP2B6 inhibition in human liver microsomes (substrate bupropion); format: in vitro ADME
# T3 sequence (P20813 1-491): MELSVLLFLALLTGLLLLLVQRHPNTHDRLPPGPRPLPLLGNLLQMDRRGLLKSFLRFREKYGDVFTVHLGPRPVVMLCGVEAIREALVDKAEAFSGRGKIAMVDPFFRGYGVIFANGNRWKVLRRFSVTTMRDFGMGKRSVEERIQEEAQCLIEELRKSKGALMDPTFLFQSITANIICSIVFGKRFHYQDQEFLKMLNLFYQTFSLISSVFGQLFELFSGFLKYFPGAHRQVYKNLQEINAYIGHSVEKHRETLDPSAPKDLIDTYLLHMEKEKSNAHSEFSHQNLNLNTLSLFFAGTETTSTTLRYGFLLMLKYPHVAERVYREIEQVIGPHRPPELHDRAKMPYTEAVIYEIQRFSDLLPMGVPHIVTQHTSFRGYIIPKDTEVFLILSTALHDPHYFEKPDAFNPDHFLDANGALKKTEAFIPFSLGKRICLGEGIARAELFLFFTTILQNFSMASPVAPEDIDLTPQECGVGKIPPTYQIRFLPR
# Procedure: as §5, §6
# CYP2C8 = target: T4, CYP2C8 (Homo sapiens, UniProt P10632); assay: CYP2C8 inhibition in human liver microsomes (substrate amodiaquine); format: in vitro ADME
# T4 sequence (P10632 1-490): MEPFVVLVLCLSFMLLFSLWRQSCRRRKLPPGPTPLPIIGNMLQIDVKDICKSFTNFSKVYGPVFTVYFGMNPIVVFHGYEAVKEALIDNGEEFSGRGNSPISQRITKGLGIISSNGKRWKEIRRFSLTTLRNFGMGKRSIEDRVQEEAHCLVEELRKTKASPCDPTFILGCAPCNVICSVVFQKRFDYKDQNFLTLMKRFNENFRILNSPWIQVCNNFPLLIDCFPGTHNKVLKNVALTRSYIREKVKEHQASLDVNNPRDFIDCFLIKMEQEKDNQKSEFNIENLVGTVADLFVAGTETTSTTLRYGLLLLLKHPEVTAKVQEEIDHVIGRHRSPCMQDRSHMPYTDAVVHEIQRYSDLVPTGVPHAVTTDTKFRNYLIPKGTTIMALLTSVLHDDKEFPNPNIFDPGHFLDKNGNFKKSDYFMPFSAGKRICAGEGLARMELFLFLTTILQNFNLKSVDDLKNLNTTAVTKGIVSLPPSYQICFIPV
# Procedure: as §5, §6
# CYP2C9 = CYP2C9 (Homo sapiens, UniProt P11712); assay: CYP2C9 inhibition in human liver microsomes (substrate diclofenac)
# Procedure: as §1, §2
# as §3, with “All the structures of inhibitors, substrates, metabolites and internal standards for each CYP enzyme are represented in Table S6 in File S1.” left out
# as §4
# CYP2C19 = CYP2C19 (Homo sapiens, UniProt P33261); assay: CYP2C19 inhibition in human liver microsomes (substrate (S)-mephenytoin); format: in vitro ADME
# Procedure: as §5
# (§7) A microsome-buffer-substrate mixture (MBS mix) was prepared for each isozyme by pre-mixing appropriate volumes of sodium phosphate buffer (pH 7.4, 50 mM), microsomes and substrate (Table S2 in File S1). 179 µL of MBS mix was transferred to 96-well reaction plate to which 1 µL of inhibitor stock solution was added to achieve the final target inhibitor concentration. The reaction plate was pre-incubated for 10 min at 37°C followed by reaction initiation by addition of 20 µL of 10 mM NADPH solution. The reaction plate was then incubated at 37°C for a predetermined time period following which it was quenched with 200 µL ACN for all CYPs and 200 µL 1% formic acid in water∶ACN (70∶30) for CYP1A2. In all cases, the final incubations after addition of substrate and inhibitor contained 0.1% DMSO (v/v), and the total organic solvent (DMSO and ACN) content was less than or equal to 1% (v/v). The details of final substrate concentration, incubation time, microsomal protein concentration in the reaction mixtures and the metabolites monitored for each isozyme tested are presented in Table S3 in File S1. The incubations were performed in singlet for individual gingerols and in duplicate for GE along with respective positive controls.
# (§8) All samples were processed using protein precipitation method and analyzed by employing positive (for all CYPs) and negative (for CYP2A6, 2C19 and 2E1) ionization mode in liquid chromatography tandem mass spectrometry (API4000, Applied Biosystems, USA). The peak area ratio of analyte to IS was used for calculations. An isocratic method comprising 5 mM ammonium formate and ACN (40∶60) with 0.05% formic acid was used for elution. For CYP2C19, a mobile phase consisting of 5 mM ammonium formate and ACN (30∶70) was used. The analytes and internal standards were retained on BDS Hypersil Phenyl (150×4.6 mm, 5 µ, Thermo, USA) column. A flow rate of 0.5 mL/min (CYP1A2), 0.6 mL/min (CYP2C19, CYP2E1), 0.7 mL/min (CYP2C9), 0.8 mL/min (CYP2A6, CYP3A), 1.0 mL/min (CYP2B6, CYP2C8, CYP2D6) was maintained using Shimadzu Prominence solvent delivery system (LC-20AD). The mobile phase was degassed using degasser (DGU-20A3), samples were loaded into autosampler (SIL-HTc) and the column temperature was maintained at 40°C by column oven (CTO-20A). […]
# CYP2D6 = CYP2D6 (Homo sapiens, UniProt P10635); assay: CYP2D6 inhibition in human liver microsomes (substrate dextromethorphan); format: in vitro ADME
# Procedure: as §5, §7, §8
# CYP3A4 [1] = target: T5, CYP3A4 (Homo sapiens, UniProt P08684); assay: CYP3A4 inhibition in human liver microsomes (substrate midazolam); format: in vitro ADME; details: for IC50 CYP3A4 (midazolam): human liver microsomes, substrate midazolam, gingerols and GE
# Procedure: as §5, §7, §8
# CYP3A4 [2] = target: T5, CYP3A4; assay: CYP3A4 inhibition in human liver microsomes (substrate testosterone); format: in vitro ADME
# Procedure: as §5, §6
# [3] = cited from earlier work
# [4] = Caco-2 permeability assay; details: human; for recovery at 120 min, 10 µM: Caco-2, pH 7.4, Mass Balance (recovery); for Papp at 120 min, 10 µM: Caco-2, pH 7.4, Papp, n = 3, mean ± SD
# Procedure: Caco-2 cells were seeded on tissue culture inserts at a density of 80,000 cells/insert. The cells were maintained for 21 days in culture medium to enable differentiation and formation of the monolayer. The culture medium was changed every alternate day.
# Stock solutions (1 mM) of individual gingerols were prepared in DMSO, which were then spiked into the buffer to obtain a final assay concentration of 10 µM. HBSS-HEPES buffer was prepared by dissolving 9.7 g Hank's balanced salts, 0.37 g sodium bicarbonate, 3.50 g glucose and 2.38 g HEPES in Milli-Q water (1 L). The pH of the buffer was adjusted to 7.4 using either 1N hydrochloric acid or 1N sodium hydroxide.
# Permeability of gingerols (10 µM) was determined in apical to basolateral (A-B) and basolateral to apical (B-A) directions. Transport studies were conducted between 21–25 days post seeding in 12-well Transwell inserts. Following pre-incubation in HBSS-HEPES buffer at 37°C, 5% CO2 for 30 min, buffer was removed and gingerols spiked buffer was added to each donor compartment (triplicate wells). Blank HBSS-HEPES buffer containing 1% DMSO was added to the receiver compartment. Samples were withdrawn from the receiver chamber at 30, 60, 90, and 120 min, and from the donor chamber at 0 and 120 min. The samples were collected in tubes containing equal volume of ACN. The withdrawn volume was replaced with buffer containing 1% DMSO. At the end of the experiment, cells were washed with ice-cold buffer and lysed with ACN to assess cell accumulation and estimate the recovery. Monolayers with transepithelial electrical resistance (TEER) above 300 Ωcm^2 were considered for the assay and after the assay TEER values were above 300 Ωcm^2 confirming the monolayer integrity during the experiment.
# Samples were processed using protein precipitation method and analyzed using LC/MS/MS. A calibration curve (CC) of 5 nM to 10,000 nM range was employed to quantify the samples. […] Separation was achieved using Zorbax C18 column (50×4.6 mm, 3.5 µ, Agilent) for 8G, 10G, 6S and using Hypurity C18 column (100×4.6 mm, 5 µ, Thermo) for 6G. An injection volume of 20 µL was used for all samples and a flow rate of 0.6 mL/min (6G) and 1 mL/min (8G, 10G and 6S) was used for elution.
# Cumulative amount of gingerols transported at each time point was plotted as function of time. The slope was used to calculate the rate of appearance of gingerols (dQ/dt).
# Apparent permeability (Papp) was calculated using the formula [drawing 4] dQ/dt – rate of transport to receiver side
# Caco-2 monolayer = assay: Caco-2 permeability assay; details: 10 µM; for Intracellular (cell) accumulation: direction not given; for Papp: n = 3, mean ± SD
# [5] = human liver microsomes, substrate phenacetin, gingerols and GE
# [6] = human liver microsomes, substrate coumarin, gingerols and GE
# [7] = human liver microsomes, substrate bupropion, gingerols and GE
# [8] = human liver microsomes, substrate amodiaquine, gingerols and GE
# [9] = human liver microsomes, substrate diclofenac, gingerols and GE
# [10] = human liver microsomes, substrate (S)-mephenytoin, gingerols and GE
# [11] = human liver microsomes, substrate dextromethorphan, gingerols and GE
# [12] = human liver microsomes, substrate chlorzoxazone, gingerols and GE
# [13] = human liver microsomes, substrate testosterone, gingerols and GE
# [14] = humans, oral 2 g GE, as glucuronide and sulfate conjugates
# Chain of CYP2D6 (P10635 whole entry): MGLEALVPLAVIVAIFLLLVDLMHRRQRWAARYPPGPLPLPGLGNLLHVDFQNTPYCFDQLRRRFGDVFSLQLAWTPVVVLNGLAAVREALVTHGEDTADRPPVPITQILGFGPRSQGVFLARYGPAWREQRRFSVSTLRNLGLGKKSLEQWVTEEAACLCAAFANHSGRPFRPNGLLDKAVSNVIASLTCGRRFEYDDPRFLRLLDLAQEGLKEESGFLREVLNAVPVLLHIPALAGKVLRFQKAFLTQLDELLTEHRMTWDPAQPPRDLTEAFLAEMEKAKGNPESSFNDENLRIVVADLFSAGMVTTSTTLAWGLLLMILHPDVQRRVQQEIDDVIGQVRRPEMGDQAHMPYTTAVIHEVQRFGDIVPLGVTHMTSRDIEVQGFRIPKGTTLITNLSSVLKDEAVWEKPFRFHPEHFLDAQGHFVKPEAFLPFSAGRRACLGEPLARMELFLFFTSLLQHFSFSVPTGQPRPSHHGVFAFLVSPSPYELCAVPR
# T5 sequence (P08684 2-503): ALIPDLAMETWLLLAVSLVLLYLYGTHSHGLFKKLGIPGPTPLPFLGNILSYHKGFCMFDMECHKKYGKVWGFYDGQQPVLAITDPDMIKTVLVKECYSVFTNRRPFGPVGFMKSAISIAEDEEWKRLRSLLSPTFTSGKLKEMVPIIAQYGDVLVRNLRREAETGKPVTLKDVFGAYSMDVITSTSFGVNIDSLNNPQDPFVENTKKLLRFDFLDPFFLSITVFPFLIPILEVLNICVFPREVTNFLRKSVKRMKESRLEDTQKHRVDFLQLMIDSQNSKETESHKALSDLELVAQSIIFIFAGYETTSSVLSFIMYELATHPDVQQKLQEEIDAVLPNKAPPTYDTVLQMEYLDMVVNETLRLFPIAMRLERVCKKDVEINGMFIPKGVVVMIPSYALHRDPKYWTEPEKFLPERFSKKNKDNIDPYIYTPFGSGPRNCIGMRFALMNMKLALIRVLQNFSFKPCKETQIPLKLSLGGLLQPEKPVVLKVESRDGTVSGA
# Chain of CYP2E1 (P05181 whole entry): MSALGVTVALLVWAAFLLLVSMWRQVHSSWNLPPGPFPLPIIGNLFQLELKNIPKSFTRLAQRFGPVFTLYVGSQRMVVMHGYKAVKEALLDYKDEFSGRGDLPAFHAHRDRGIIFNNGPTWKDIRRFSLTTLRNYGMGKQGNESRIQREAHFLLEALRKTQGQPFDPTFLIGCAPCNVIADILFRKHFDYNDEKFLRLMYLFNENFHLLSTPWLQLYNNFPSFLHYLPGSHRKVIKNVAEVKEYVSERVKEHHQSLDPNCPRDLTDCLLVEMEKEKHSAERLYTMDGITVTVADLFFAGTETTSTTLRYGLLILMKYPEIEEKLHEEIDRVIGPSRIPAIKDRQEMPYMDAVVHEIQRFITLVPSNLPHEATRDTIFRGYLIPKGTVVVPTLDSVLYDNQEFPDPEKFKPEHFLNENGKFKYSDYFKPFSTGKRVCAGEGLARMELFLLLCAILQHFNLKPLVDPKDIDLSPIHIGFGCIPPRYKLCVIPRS
# Chain of CYP2C9 (P11712 whole entry): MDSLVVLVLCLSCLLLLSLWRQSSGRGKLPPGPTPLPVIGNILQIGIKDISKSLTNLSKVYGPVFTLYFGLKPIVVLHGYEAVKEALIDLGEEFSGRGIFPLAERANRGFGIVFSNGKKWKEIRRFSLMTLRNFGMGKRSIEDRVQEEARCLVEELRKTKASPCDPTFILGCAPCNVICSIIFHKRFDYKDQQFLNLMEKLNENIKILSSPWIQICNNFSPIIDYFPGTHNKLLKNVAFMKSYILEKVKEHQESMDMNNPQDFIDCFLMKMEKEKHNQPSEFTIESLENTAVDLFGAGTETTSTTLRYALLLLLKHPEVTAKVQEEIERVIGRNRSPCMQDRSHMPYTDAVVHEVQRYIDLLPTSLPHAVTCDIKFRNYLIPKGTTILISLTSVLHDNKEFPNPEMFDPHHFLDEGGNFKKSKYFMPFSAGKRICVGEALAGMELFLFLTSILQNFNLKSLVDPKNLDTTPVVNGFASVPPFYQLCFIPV
# Chain of CYP2C19 (P33261 whole entry): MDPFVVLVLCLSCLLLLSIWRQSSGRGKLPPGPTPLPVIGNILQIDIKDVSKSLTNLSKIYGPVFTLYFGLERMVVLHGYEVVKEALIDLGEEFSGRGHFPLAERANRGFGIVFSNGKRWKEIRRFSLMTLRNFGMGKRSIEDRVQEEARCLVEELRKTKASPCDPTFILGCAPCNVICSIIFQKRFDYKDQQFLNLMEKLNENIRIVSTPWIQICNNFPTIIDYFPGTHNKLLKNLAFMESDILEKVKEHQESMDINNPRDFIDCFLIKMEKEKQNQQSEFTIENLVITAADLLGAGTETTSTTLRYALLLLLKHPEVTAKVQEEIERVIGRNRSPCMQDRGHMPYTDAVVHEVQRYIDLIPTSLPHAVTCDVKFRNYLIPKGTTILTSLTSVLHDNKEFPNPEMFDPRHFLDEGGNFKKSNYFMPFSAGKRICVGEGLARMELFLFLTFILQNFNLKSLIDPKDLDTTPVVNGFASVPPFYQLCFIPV
Compound,Intracellular (cell) accumulation (Caco-2 monolayer),Intracellular accumulation (Caco-2 monolayer; A→B),Intracellular accumulation (Caco-2 monolayer; B→A),IC50 CYP1A2 (CYP1A2; [5]),IC50 CYP2A6 (CYP2A6; [6]),IC50 CYP2B6 (CYP2B6; [7]),IC50 CYP2C8 (CYP2C8; [8]),IC50 CYP2C9 (CYP2C9; [9]),IC50 CYP2C19 (CYP2C19; [10]),IC50 CYP2D6 (CYP2D6; [11]),IC50 CYP2E1 (CYP2E1; [12]),IC50 CYP3A4 (midazolam) (CYP3A4 [1]),IC50 CYP3A4 (testosterone) (CYP3A4 [2]; [13]),"Cmax / circulating concentration in humans [3, 14]",Papp (Caco-2 monolayer; A→B),Papp (Caco-2 monolayer; B→A),Efflux Ratio (Caco-2 monolayer),other results
"N[C@@H]1C[C@H]1c1ccccc1 (racemic) [Tranylcypromine, reference compound]",,,,,,,,,,,,,,,,,,"IC50 CYP2A6 (CYP2A6; human liver microsomes, substrate coumarin, positive control): 0.0084 µg/mL; CYP2A6 inhibition, fold more effective than the test compounds (CYP2A6; positive control vs test compounds): ~4000 fold; IC50 CYP2E1 (CYP2E1; human liver microsomes, substrate chlorzoxazone, positive control): 0.5793 µg/mL; IC50 CYP2E1 (CYP2E1; human liver microsomes, substrate chlorzoxazone, positive control, listed as tranylcypromine): 0.579 µg/mL"
"CCCCC[C@H](O)CC(=O)CCc1ccc(O)c(OC)c1 [6G, 6-gingerol]",< 5%,2%,5%,,,,,,,,,,,,,,,"IC50 (CYP1A2): 19 µM; IC50 (CYP2A6): > 98.5 µM; IC50 (CYP2B6): 51 µM; IC50 (CYP2C8; IC50 CYP2C8, human liver microsomes, substrate amodiaquine, gingerols and GE): 22.1 µM; IC50 (CYP2C9): 27.9 µM; IC50 (CYP2C19): 10.9 µM; IC50 (CYP2D6; IC50 CYP2D6, human liver microsomes, substrate dextromethorphan, gingerols and GE): > 98.5 µM; IC50 (CYP2E1): > 98.5 µM; IC50 (CYP3A4 [1]): > 98.5 µM; IC50 (CYP3A4 [2]): 37.4 µM; Cmax / circulating concentration in humans ([3]; human, in vivo, po): 850 ± 430 ng/mL; efflux ratio at 120 min, 10 µM ([4]; Caco-2, pH 7.4, Efflux Ratio): < 2; recovery at 120 min, 10 µM ([4]; A→B): < 50%; recovery at 120 min, 10 µM ([4]; B→A): 77%; Papp at 120 min, 10 µM ([4]; A→B): > 10 ×10⁻⁶ cm/s; Papp at 120 min, 10 µM ([4]; B→A): > 10 ×10⁻⁶ cm/s"
"CCCCC/C=C/C(=O)CCc1ccc(O)c(OC)c1 [6S, 6-shogaol]",almost no accumulation,0%,1%,0.7 µg/mL,23 µg/mL,1.6 µg/mL,0.8 µg/mL,0.9 µg/mL,1.1 µg/mL,24 µg/mL,21 µg/mL,18 µg/mL,2.3 µg/mL,150 ± 120 ng/mL,0.071 ± 0.014 ×10⁻⁶ cm/s,0.4 ± 0.2 ×10⁻⁶ cm/s,,
"CCCCCCC[C@H](O)CC(=O)CCc1ccc(O)c(OC)c1 [8G, 8-gingerol]",< 1%,14%,12%,8.8 µg/mL,19 µg/mL,2.6 µg/mL,0.70 µg/mL,2.8 µg/mL,2.6 µg/mL,24 µg/mL,30 µg/mL,>32 µg/mL,2.6 µg/mL,230 ± 160 ng/mL,5.3 ± 0.8 ×10⁻⁶ cm/s,6.9 ± 0.6 ×10⁻⁶ cm/s,1.3,
"CCCCCCCCC[C@H](O)CC(=O)CCc1ccc(O)c(OC)c1 [10G, 10-gingerol]",15%,15%,10%,,,,,,,,,>35 µg/mL,,530 ± 400 ng/mL,0.9 ± 0.7 ×10⁻⁶ cm/s,1.7 ± 0.6 ×10⁻⁶ cm/s,1.8,IC50 CYP1A2 (CYP1A2; microsomes): > 35 µg/mL; IC50 CYP2A6 (CYP2A6; microsomes): 34 µg/mL; IC50 CYP2B6 (CYP2B6; microsomes): 1.5 µg/mL; IC50 CYP2C8 (CYP2C8; microsomes): 0.7 µg/mL; IC50 CYP2C9 (CYP2C9; microsomes): 2.6 µg/mL; IC50 CYP2C19 (CYP2C19; microsomes): 2.3 µg/mL; IC50 CYP2D6 (CYP2D6; microsomes): 19 µg/mL; IC50 CYP2E1 (CYP2E1; microsomes): >35 µg/mL; IC50 CYP3A4 (testosterone) (CYP3A4 [2]; microsomes): 2.5 µg/mL
